# From patent publication US7365099B2, “Animal body fat control” (Wisconsin Alumni Research Foundation, priority 2001, dated 2008)
# Experiments:
# [1] = system: lipoprotein lipase associated with 3T3-L1 adipocytes; assay: Heparin-releasable lipoprotein lipase (LPL) activity in 3T3-L1 adipocyte cultures; assay type: cell-based; settings: for potency in reducing LPL (rank order, in words): FIG. 5B, 20–24 hours, all test compounds at 100 μM; for LPL activity (in words): CLA 100 μM, aspirin 100 μM
# Method: Using the same model, the effects on LPL of aspirin and NDGA, as compared to CLA, were tested. 3T3-L1 preadipocytes were cultured as described. […] Briefly, 3T3-L1 preadipocytes were grown to confluence at 37° C. in Dulbecco's Modified Eagle's Medium (DMEM) with 10% fetal bovine serum (FBS). At two days post-confluence (designated “day 0”) cell differentiation was induced with a mixture of methylisobutylxanthine (0.5 mM), dexamethasone (0.25 μM), and insulin (1 μg/ml) in DMEM containing 10% FBS. On “day 2” this medium was replaced with DMEM medium containing 10% FBS and insulin only. On “day 4” and thereafter the medium was DMEM plus 10% FBS only; this medium was subsequently replaced with fresh medium at 2 day intervals.
# First, aspirin was tested along with PGE2, which is the final product of cyclooxygenase. Cells were treated with testing compounds for 4 hours before harvesting at day 6 or 7 post differentiation. The concentration of CLA, aspirin, and PGE2 were 1×10^−4 M, 1×10^−4 M, and 1×10^−6 M respectively. […] All dishes (including control) contained the same concentration of albumin (1×10^−4 M) and ethanol (final concentration of 0.1%).
# Heparin-releasable lipoprotein lipase (LPL) activity (EC 3.1.1.34, 10 U heparin/ml media for 1 hr at 37° C.) was measured as described. Nilsson-Ehle, P. and M. C. […] Protein was determined using Bio-Rad DC Protein assay kit.
# In a next set of cell culture experiments, shown in FIG. 4, cells were treated with testing compounds for 20–24 hours at day 7 post differentiation. […] CLA was complexed with albumin, and aspirin and NDGA were dissolved in ethanol. All dishes including control contained the same concentration of albumin (1×10^−4 M) and ethanol (final concentration of 0.05%). Numbers are mean±S.E. (n=7–8, collected from 2 independent experiments).
# (§1) Cells were treated with other known lipoxygenase inhibitors. Cells were treated with testing compounds for 20–24 hours at day 6 or 7 post differentiation. Based on the ED50 of these inhibitors, various doses were first tested. In FIG. 5A, the concentration of SHA, CLA, ETYA, indomethacin, NDGA and AA861 were 1×10^−3 M, 1×10^−4 M, 1×10^−4 M, 1×10^−4 M, 1×10^−5 M and 1×10^−6 M, respectively. In FIG. 5B, the cells were treated with the test compounds at 1×10^−4 M. CLA was complexed with albumin and others were dissolved in ethanol. All dishes including control contained the same concentration of albumin (1×10^−4 M) and ethanol (final concentration of 0.1%). Numbers are mean±S.E. (in FIG. 5A, n=7–8, collected from 2 independent experiments, in FIG. 5B, n=11–12, collected from 3 independent experiments). […] Indomethacin blocks both cyclooxygenase and lipoxygenase, the two primary enzymes in the arachidonic acid metabolic cascade.
# [2] = Food intake of mice on NDGA/CLA diets (Experiment 2); assay type: in vivo; settings: male ICR mice; for food intake, Total / food intake, Week 1 / food intake, Week 4: mean±S.E., N=5–6
# Method: (§2) After a 5 day adaptation period, four-week-old weanling male ICR mice (Harlan Sprague-Dawley) were randomly separated into groups that were fed one of the treatment diets for 4 weeks. Mice were fed either a control diet (as in Experiment 1), or a diet supplemented with CLA (0.1%), NDGA (0.1% or 0.005%), or CLA (0.1%) with NDGA (0.1% or 0.005%). The lower level of NDGA was chosen based on the level used as an antioxidant in the food industry. Supplemental NDGA was added to diets at the expense of sugar. Diet was stored at −20° C. until use. Mice were housed individually in a windowless room with a 12-h light-dark cycle in strict accordance to guidelines established by the Research Animal Resources Center of University of Wisconsin-Madison. Diet and water, available ad libitum, were freshly provided three times per week.
# ICR mice [3] = assay: Body composition analysis of mice on NDGA/CLA diets (Experiment 2); assay type: in vivo; settings: male ICR mice; for % Ash / ECW (empty carcass weight): mean±S.E., N=5–6; for body composition versus control (in words): 4 weeks
# Method: For body composition analyses, animals were sacrificed, gut contents were removed (to obtain empty carcass weight, “ECW”), and the carcasses frozen at −20° C. Frozen carcasses were chopped, and freeze dried to determine water content. Each dried carcass was ground to give a homogeneous sample before further analysis. Total nitrogen was analyzed by the Kjeldahl method. Helrich, K., Official Methods of Analysis, 15th ed.: 935–937(1990). Carcass fat content was measured by extraction with diethyl ether overnight using a Soxhlet apparatus. Total ash content was determined by incineration (500–600° C., overnight).
# as §2
# [4] = Body weights of mice on NDGA/CLA diets (Experiment 2, FIG. 2); assay type: in vivo; settings: male ICR mice
# Method: as §2
# 3T3-L1 adipocytes [5] = assay: Glycerol released from 3T3-L1 adipocytes; assay type: cell-based; settings: treated 20–24 hours
# Method: (§3) Fat reduction by CLA is partly due to inhibition of lipoprotein lipase (LPL) in adipocytes, as has been previously shown using a 3T3-L1 adipocyte cell culture model. Using the same model, the effects on LPL of aspirin and NDGA, as compared to CLA, were tested. 3T3-L1 preadipocytes were cultured as described. Frost, S. C. and M. D. Lane, J. Biol. Chem. 260: 2646–2652(1985). Briefly, 3T3-L1 preadipocytes were grown to confluence at 37° C. in Dulbecco's Modified Eagle's Medium (DMEM) with 10% fetal bovine serum (FBS). At two days post-confluence (designated “day 0”) cell differentiation was induced with a mixture of methylisobutylxanthine (0.5 mM), dexamethasone (0.25 μM), and insulin (1 μg/ml) in DMEM containing 10% FBS. On “day 2” this medium was replaced with DMEM medium containing 10% FBS and insulin only. On “day 4” and thereafter the medium was DMEM plus 10% FBS only; this medium was subsequently replaced with fresh medium at 2 day intervals.
# as §1, with “cascade. […] When 100 μM of these were tested, the potency was AA861>NDGA>ETYA>Indomethacin>CLA. […]” for “cascade.”
# fat tissue = settings: reported by Gowri et al. 2000; cited from earlier work
# ICR mice [6] = assay: Body composition analysis of mice on aspirin/CLA diets (Experiment 1); assay type: in vivo; settings: female ICR mice, 4 weeks
# Description: After a 5 day adaptation period, four-week-old weanling female ICR mice (Harlan Sprague-Dawley) were randomly separated into groups that were fed one of the treatment diets for 4 weeks. Mice were fed either a control diet, or a diet supplemented with aspirin alone (0.03%), 0.5% CLA alone, or CLA with additional aspirin (0.006% [“Asp1”] or 0.03% [“Asp2”]). The control diet was semi-purified TD94060 diet, 99% basal mix from Harlan Teklad, Madison, Wis. that contained (ingredient, g/kg): sucrose, 476; casein, “vitamin-free” test, 210; corn starch, 150; DL-methionine, 3; corn oil 55; cellulose, 50; mineral mix, AIN-76, 35; vitamin mix, AIV-76A, 10; calcium carbonate, 4; choline bitartrate, 2; and ethoxyquin, 0.1. The aspirin doses reflect an average human dose (0.03%) or a recommended dose for preventing cardiovascular disease (0.006%). Supplemental CLA was added to diets at the expense of corn oil. Diet was stored at −20° C. until use. […]
# For body composition analyses, animals were sacrificed, gut contents were removed (to obtain empty carcass weight, “ECW”), and the carcasses frozen at −20° C. […] Total nitrogen was analyzed by the Kjeldahl method. […] Carcass fat content was measured by extraction with diethyl ether overnight using a Soxhlet apparatus. Total ash content was determined by incineration (500–600° C., overnight).
# [7] = Body weights of mice on aspirin/CLA diets (Experiment 1, FIG. 1); assay type: in vivo; settings: female ICR mice, 0.5% CLA and/or 0.03% aspirin
# Description: After a 5 day adaptation period, four-week-old weanling female ICR mice (Harlan Sprague-Dawley) were randomly separated into groups that were fed one of the treatment diets for 4 weeks. Mice were fed either a control diet, or a diet supplemented with aspirin alone (0.03%), 0.5% CLA alone, or CLA with additional aspirin (0.006% [“Asp1”] or 0.03% [“Asp2”]). The control diet was semi-purified TD94060 diet, 99% basal mix from Harlan Teklad, Madison, Wis. that contained (ingredient, g/kg): sucrose, 476; casein, “vitamin-free” test, 210; corn starch, 150; DL-methionine, 3; corn oil 55; cellulose, 50; mineral mix, AIN-76, 35; vitamin mix, AIV-76A, 10; calcium carbonate, 4; choline bitartrate, 2; and ethoxyquin, 0.1. The aspirin doses reflect an average human dose (0.03%) or a recommended dose for preventing cardiovascular disease (0.006%). Supplemental CLA was added to diets at the expense of corn oil. Diet was stored at −20° C. until use. Mice were housed individually in a windowless room with a 12-h light-dark cycle in strict accordance to guidelines established by the Research Animal Resources Center of University of Wisconsin-Madison. Diet and water, available ad libitum, were freshly provided three times per week.
# 3T3-L1 adipocytes [8] = assay: Cellular triacylglyceride (TG) in 3T3-L1 adipocytes; assay type: cell-based; settings: treated 20–24 hours
# Method: as §3
# Cells were treated with other known lipoxygenase inhibitors. Cells were treated with testing compounds for 20–24 hours at day 6 or 7 post differentiation. Based on the ED50 of these inhibitors, various doses were first tested. In FIG. 5A, the concentration of SHA, CLA, ETYA, indomethacin, NDGA and AA861 were 1×10^−3 M, 1×10^−4 M, 1×10^−4 M, 1×10^−4 M, 1×10^−5 M and 1×10^−6 M, respectively. […]
# [9] = 4 weeks diet with 0.005% NDGA, with or without 0.1% CLA
# [10] = 4 weeks diet with 0.1% CLA and/or 0.1% NDGA
# [11] = diet with 0.005% NDGA, with or without 0.1% CLA
# [12] = diet with 0.1% CLA and/or 0.1% NDGA
# [13] = 0.005% NDGA, with or without 0.1% CLA
# [14] = FIG. 4, treated 20–24 hours at day 7 post differentiation, NDGA 50 μM
# [15] = FIG. 3, treated 4 hours, day 6 or 7 post differentiation, PGE2 1 μM
molecule,measurement,setting,value
"CCCCCC#CCC#CCC#CCC#CCCCC(=O)O [ETYA, 5,8,11,14-eicosatetraynoic acid]","potency in reducing LPL (rank order, in words)",[1],AA861>NDGA>ETYA>Indomethacin>CLA
"COc1ccc2c(c1)c(CC(=O)O)c(C)n2C(=O)c1ccc(Cl)cc1 [Indomethacin, indomethacin]","potency in reducing LPL (rank order, in words)",[1],AA861>NDGA>ETYA>Indomethacin>CLA
"CC(Cc1ccc(O)c(O)c1)C(C)Cc1ccc(O)c(O)c1 (stereo not drawn) [NDGA, nordihydroguaiaretic acid]","food intake, Total",[2]; [9],136.3 ± 1.3 g/mouse
same,"food intake, Total",[2]; [10],137.9 ± 1.9 g/mouse
same,"food intake, Week 1",[2]; [11],33.8 ± 0.6 g/mouse
same,"food intake, Week 4",[2]; [11],34.0 ± 0.4 g/mouse
same,"food intake, Week 1",[2]; [12],35.2 ± 0.7 g/mouse
same,"food intake, Week 4",[2]; [12],33.8 ± 1.0 g/mouse
same,% Ash,ICR mice [3]; [9],3.29 ± 0.12%
same,ECW (empty carcass weight),ICR mice [3]; [9],32.2 ± 0.6 g
same,% Ash,ICR mice [3]; [10],3.43 ± 0.09%
same,ECW (empty carcass weight),ICR mice [3]; [10],31.9 ± 1.3 g
same,body composition versus control (in words),ICR mice [3]; [13],no effect on body composition
same,body composition versus control (in words),ICR mice [3]; 0.1% CLA and/or 0.1% NDGA,reduced fat (p<0.209) and increased water and protein
same,body weights (in words),[4]; [13],no difference in body weights
same,body weights (in words),[4]; 0.1% CLA and/or 0.1% NDGA,no difference in body weights
same,glycerol released from the cell (in words),3T3-L1 adipocytes [5],reduced the glycerol release
same,LPL activity (in words),[1]; [14],significantly reduced LPL activity
same,"potency in reducing LPL (rank order, in words)",[1],AA861>NDGA>ETYA>Indomethacin>CLA
same,lipolysis in fat tissue (in words),fat tissue,reduce lipolysis
"CCCCC[C@H](O)/C=C/[C@H]1[C@H](O)CC(=O)[C@@H]1C/C=C\CCCC(=O)O [PGE2, Prostaglandin E2]",LPL activity (in words),[1]; [15],no effect on LPL
"CC1=C(C)C(=O)C(CCCCC#CCCCC#CCO)=C(C)C1=O [AA861, 2-[12-hydroxydodeca-5,10-diynyl]-3,5,6-trimethyl-p-benzoquinone]",glycerol released from the cell (in words),3T3-L1 adipocytes [5],reduced the glycerol release
same,"potency in reducing LPL (rank order, in words)",[1],AA861>NDGA>ETYA>Indomethacin>CLA
"CC(=O)Oc1ccccc1C(=O)O [aspirin, Acetylsalicylic acid]",LPL activity (in words),[1]; [15],no effect on LPL
same,LPL activity (in words),[1]; [14],no effect
same,effect of added aspirin on CLA's effects on body composition (in words),ICR mice [6]; 0.006% or 0.03% aspirin with 0.5% CLA,did not change any of CLA's effects
same,body composition versus control (in words),"ICR mice [6]; 0.5% CLA with or without aspirin, aspirin alone 0.03%",no effect on body composition
same,"body weights, weeks 0 through 3 (in words)",[7],no difference in body weights
Conjugated linoleic acid [CLA],food intake compared to control (in words),"[2]; 0.1% CLA, with or without 0.1% NDGA",reduced food intake only at week 3
same,"food intake, Total",[2]; [10],136.6 ± 1.2 g/mouse
same,"food intake, Week 1",[2]; [12],34.5 ± 0.3 g/mouse
same,"food intake, Week 4",[2]; [12],32.4 ± 0.7 g/mouse
same,% Ash,ICR mice [3]; [10],3.49 ± 0.07%
same,ECW (empty carcass weight),ICR mice [3]; [10],32.0 ± 0.9 g
same,body composition versus control (in words),ICR mice [3]; 0.1% CLA and/or 0.1% NDGA,reduced fat (p<0.197) and increased water and protein
same,body weights (in words),[4]; 0.1% CLA and/or 0.1% NDGA,no difference in body weights
same,amount of cellular triacylglyceride (TG) (in words),3T3-L1 adipocytes [8],reduced
same,glycerol released from the cell (in words),3T3-L1 adipocytes [5],increased the glycerol released
same,LPL activity (in words),[1]; [15],significantly decreased LPL activity
same,LPL activity (in words),[1]; [14],significantly reduced LPL activity
same,"potency in reducing LPL (rank order, in words)",[1],AA861>NDGA>ETYA>Indomethacin>CLA
same,"body weights, weeks 0 through 3 (in words)",[7],no difference in body weights
